The results in this text go back to ChEMBL document CHEMBL4000152, “Synthesis and Antimalarial Activity of Mallatojaponin C and Related Compounds” (J Nat Prod, 2016).

Series [1] deals with Plasmodium falciparum. Nature of the series: Antiplasmodial activity against intraerythrocytic stage of Plasmodium falciparum Dd2 assessed as parasite growth inhibition after 72 hrs by SYBR Green I dye-based assay. Type of series: functional. The note with it: Dd2, 72 h.
Series [2] relates to Plasmodium falciparum. Kind of series: Antiplasmodial activity against Plasmodium falciparum FcB1/Columbia infected in human erythrocytes assessed as parasite growth inhibition after 24 hrs by [3H]-hypoxanthine incorporation assay. Type of series: functional, cell-based.
Series [3] is described as follows: Stability of the compound under freezing condition. Type of series: physicochemical.

Consider `CC(=O)c1c(O)cc(O)c(CC=C(C)C)c1O`, for which, in series [1], the IC50 was more than 20 µM. For `COc1cc(O)c(C(C)=O)c(O)c1`, the IC50 in series [1] is more than 20 µM. Turning to `COc1cc(O)c(C(C)=O)c(O)c1CCC(C)(C)O`, the IC50 in series [1] was more than 20 µM. Turning to `COc1cc(O)c(C(C)=O)c(O)c1C/C=C(/C)CC/C=C(/C)CCC=C(C)C`, in series [1], the IC50 was determined as 0.56 µM.

`COc1cc(O)c(C(C)=O)c(O)c1C/C=C(\C)CCC=C(C)C`: the IC50 in series [1] was determined as 0.57 µM; in series [2], 4.4 µM. For `COc1cc(O)c(C(C)=O)c(O)c1CC=C(C)C` the same measures were 1.7 µM and 7.4 µM. As to `COc1c(CC=C(C)C)c(O)c(C(C)=O)c(O)c1Cc1c(O)c(C(C)=O)c(O)c(CC=C(C)C)c1OC` [MALLOTOJAPONIN C], in series [2], the IC50 came out at 0.75 µM. Consider `CC(=O)c1c(O)cc(O)c(C/C=C(\C)CCC=C(C)C)c1O`, for which the IC50 in series [1] was 6.6 µM.

Consider `CC(=O)c1c(O)cc(O)cc1O` [2,4,6-TRIHYDROXYACETOPHENONE], for which the IC50 in series [1] is more than 20 µM.

With `COc1cc(O)c(C(C)=O)c(O)c1Cc1c(OC)cc(O)c(C(C)=O)c1O`, the figures for the IC50 in series [1] and in series [2] were 8.1 µM and 17.6 µM, respectively. Take `CC(=O)c1c(O)cc(O)c(C/C=C(/C)CC/C=C(/C)CCC=C(C)C)c1O`: the IC50 in series [1] worked out at 3.6 µM. With `COc1c(C/C=C(\C)CCC=C(C)C)c(O)c(C(C)=O)c(O)c1Cc1c(O)c(C(C)=O)c(O)c(C/C=C(\C)CCC=C(C)C)c1OC`, the IC50 in series [1] worked out at 1.7 µM; in series [2] it was 6 µM.

As for `CC(=O)c1c(O)c(CC=C(C)C)c(O)c(C(c2ccc(F)cc2)c2c(O)cc(O)c(CC=C(C)C)c2O)c1O` (centres undefined), the IC50 in series [1] fell in the range of 2 to 4 µM. Besides, the Stability result in series [3] was “Unstable”. Turning to `COc1c(CCC(C)(C)O)c(O)c(C(C)=O)c(O)c1Cc1c(O)c(C(C)=O)c(O)c(CCC(C)(C)O)c1OC`, the IC50 in series [1] is more than 10 µM.
